Assay results taken from patent US20240299416A1, “TREATMENT OF NF-kB-MEDIATED DISEASE” (ReveraGen BioPharma, Inc., priority 2021, published 2024).

Legend:
boys with DMD = experiment: VBP15-004 (VISION-DMD) Phase 2b efficacy at 24 weeks; assay type: in vivo, human
Text: (§1) The second period of 24 weeks, where all participants receive vamorolone treatment on either of the two dose levels, will continue to capture additional longer-term safety and tolerability data.

[1] = VBP15-002 Phase IIa multiple ascending dose PK and safety; assay type: in vivo, human
Description: (§2) Vamorolone clinical studies have been conducted in adult male volunteers and boys with DMD, a disorder in which skeletal muscle is in a chronic inflammatory state. Two consecutive open-label dose-ranging studies in 48 DMD patients aged 4 to <7 years (corticosteroid-naïve) were conducted (Phase IIa, VBP15-002; Phase IIa, VBP15-003). Doses were tested over a 24-fold dose range (0.25, 0.75, 2.0, and 6.0 mg/kg/day), with 12 participants per group. The first multiple ascending dose (MAD) cohort trial-tested pharmacokinetics (PK) and safety for 2 weeks of drug dosing followed by a 2-week washout (VBP15-002). […] All DMD participants completed the MAD study and then continued on the same dose for a 24-week dose-finding (efficacy and safety) extension study (VBP15-003).
Three consecutive clinical trials of vamorolone treatment of DMD were conducted by CINRG (VBP15-002 [NCT02760264]; VBP15-003 [NCT02760277]; VBP15-LTE [NCT03038399]). A total of 48 participants (ages 4 to <7 years) were initially enrolled into VBP15-002, with trial participants completing month 12 of the 24-month VBP15-LTE study.
VBP15-002 (Phase IIa; two weeks on the drug, two weeks off drug) enrolled 48 corticosteroid-naïve participants with DMD, and all 48 participants completed the study and enrolled into VBP15-003 (Phase IIa extension; 24-week treatment). […]

[2] = VBP15-004 height and BMI z-scores, 24 to 48 weeks; assay type: in vivo, human; settings: for change in height Z scores: baseline to Week 24
Description: as §1
Subjects already on vamorolone continued on the allocated dose level. Efficacy at Week 48 was assessed by Time to Stand (TTSTAND) velocity, 6-Minute Walk Test (6MWT), Time to Run/Walk 10 meters (TTRW) velocity, and North Star Ambulatory Assessment (NSAA). […] In contrast, the persistence of effects with vamorolone 2 mg/kg/day was less pronounced for some parameters. The safety profile was consistent for subjects who continued on the same dose of vamorolone throughout the study, with no increase in frequency or severity of adverse events being observed over time. […] In addition, vamorolone treatment at both doses reversed the growth impairment seen during prednisone treatment and was associated with fewer adverse events, including those associated with corticosteroid use.

[3] = VBP15-003 24-week dose-finding extension, safety; assay type: in vivo, human
Description: as §2
VBP15-002 (Phase IIa; two weeks on the drug, two weeks off drug) enrolled 48 corticosteroid-naïve participants with DMD, and all 48 participants completed the study and enrolled into VBP15-003 (Phase IIa extension; 24-week treatment). Forty-six of 48 participants completed the VBP15-003 study (2 participants withdrew from VBP15-003 for reasons unrelated to the study drug). In addition, all participants (46/46) opted to enroll in the 24-month long-term extension study, VBP15-LTE.
Only participants completing VBP15-002 and VBP15-003 were eligible to enroll in VBP15-LTE. Participants received vamorolone at 1 of 4 dose levels (0.25, 0.75, 2.0, or 6.0 mg/kg/day) and at the same dose level in both the 4-week VBP15-002 trial and the 24-week VBP15-003 trial. If participants, their families, and their physicians wished to continue vamorolone treatment upon exiting the VBP15-003 trial, they were offered participation in the 24-month long-term extension (VBP15-LTE). The last visit of the VBP15-003 trial was commensurate with the first visit of the VBP15-LTE trial. In all studies, study medication was provided as 4% flavored liquid suspension and was dosed according to body weight and given once daily in the morning with food.
Study visits took place quarterly, including assessment of clinical laboratory results, vital signs, and AEs. All AEs were coded using the Medical Dictionary for Regulatory Activities (MedDRA version 19.0) system for reporting (preferred term and system organ class). Clinical efficacy assessments were performed at baseline of the VBP15-002 study, at six months (end of VBP15-003 study), and the 12-month midpoint visit of the VBP15-LTE study.

[4] = molecular target: T1, mineralocorticoid receptor (Homo sapiens, UniProt P08235); settings: cited from earlier work
T1 sequence (P08235 1-984): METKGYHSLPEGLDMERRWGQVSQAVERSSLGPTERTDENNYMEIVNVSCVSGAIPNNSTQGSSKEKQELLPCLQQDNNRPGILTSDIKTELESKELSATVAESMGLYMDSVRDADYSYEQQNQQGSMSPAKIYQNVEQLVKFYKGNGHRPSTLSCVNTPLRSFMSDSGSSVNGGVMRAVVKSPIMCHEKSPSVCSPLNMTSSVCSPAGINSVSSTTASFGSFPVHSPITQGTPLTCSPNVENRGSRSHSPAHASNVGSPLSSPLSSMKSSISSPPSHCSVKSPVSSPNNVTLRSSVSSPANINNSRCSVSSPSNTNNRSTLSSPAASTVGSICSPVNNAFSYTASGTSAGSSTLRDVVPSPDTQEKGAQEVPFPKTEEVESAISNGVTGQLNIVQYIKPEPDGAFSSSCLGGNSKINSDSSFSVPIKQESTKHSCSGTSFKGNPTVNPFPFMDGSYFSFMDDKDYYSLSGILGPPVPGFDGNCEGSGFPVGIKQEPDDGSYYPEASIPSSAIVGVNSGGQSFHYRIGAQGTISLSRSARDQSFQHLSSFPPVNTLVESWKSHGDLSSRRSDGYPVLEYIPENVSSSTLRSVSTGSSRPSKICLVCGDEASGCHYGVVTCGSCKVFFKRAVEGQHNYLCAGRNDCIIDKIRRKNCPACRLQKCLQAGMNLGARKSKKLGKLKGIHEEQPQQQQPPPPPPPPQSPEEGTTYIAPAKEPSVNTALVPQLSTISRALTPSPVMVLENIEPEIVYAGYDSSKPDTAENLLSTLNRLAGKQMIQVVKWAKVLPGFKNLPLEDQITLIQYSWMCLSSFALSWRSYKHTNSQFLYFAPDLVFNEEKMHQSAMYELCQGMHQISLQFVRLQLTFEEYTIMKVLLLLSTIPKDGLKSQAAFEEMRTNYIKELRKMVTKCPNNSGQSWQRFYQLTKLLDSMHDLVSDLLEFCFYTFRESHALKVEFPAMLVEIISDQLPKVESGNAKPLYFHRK

- height (z-score), absolute value, Mean ([2]; PDN/VAM 6 mg, Week 48): −0.12
- BMI mean z-score ([2]; Treatment Period 2 after switch from prednisone to vamorolone 6 mg/kg/day): 1.32
- growth velocity ([2]; both vamorolone doses, 48 weeks): preserved
- BMI mean z-score ([2]; continuing on 2 mg/kg/day, Week 24): 1.10
- BMI mean z-score ([2]; continuing on 2 mg/kg/day, Week 48): 0.91
- BMI mean z-score ([2]; continuing on 6 mg/kg/day, Week 24): 1.40
- BMI mean z-score ([2]; continuing on 6 mg/kg/day, Week 48): 1.32
- change in height Z scores ([2]; vamorolone 2.0 mg/kg/day): overall stable height change Z scores
- change in height Z scores ([2]; vamorolone 6.0 mg/kg/day): increased growth rate
SMILES: C[C@@H]1C[C@H]2[C@@H]3CCC4=CC(=O)C=C[C@]4(C)C3=CC[C@]2(C)[C@@]1(O)C(=O)CO [Vamorolone, 17α,21-dihydroxy-16α-methylpregna-1,4,9(11)-triene-3,20-dione]
- 6MWT versus placebo (boys with DMD; 2 mg/kg/day, 24 weeks, p=0.009): superiority
- TTSTAND velocity versus placebo (boys with DMD; 2 mg/kg/day, 24 weeks, p=0.02): superiority
- TTSTAND (boys with DMD; 6 mg/kg/day group, baseline): 6.0 s
- efficacy endpoints versus prednisone (boys with DMD; 6 mg/kg/day vs prednisone 0.75 mg/kg/day, 24 weeks): no statistically significant differences
- TTRW versus placebo (boys with DMD; 6 mg/kg/day, 24 weeks, p=0.002): superiority
- 6MWT versus placebo (boys with DMD; 6 mg/kg/day, 24 weeks, p=0.003): superiority
- dose-limiting toxicities ([1]; 2 weeks dosing, 0.25-6.0 mg/kg/day): no dose-limiting toxicities
- drug accumulation ([1]; day 1 vs day 14): no drug accumulation
- TEAE abnormal behavior, participants ([3]; 2.0-mg/kg/day group): one participant
- TEAE Cushingoid habitus, participants ([3]; 6.0-mg/kg/day group): one participant each
- TEAE abnormal blood cortisol level, participants ([3]; 6.0-mg/kg/day group): one participant each
- TEAE anxiety, participants ([3]; 6.0-mg/kg/day group): one participant each
- TEAE hypertrichosis, participants ([3]; 6.0-mg/kg/day group): two participants
- TEAE personality change, participants ([3]; 6.0-mg/kg/day group): one participant each
- safety and tolerability ([3]; oral, all doses tested, 24 weeks): safe and well-tolerated
- activity at the mineralocorticoid receptor [4]: potent antagonist
